The values that follow come from US5681685A, “Photopolymerizable composition containing squarylium compound” (Kyowa Hakko Kogyo Co., Ltd., priority 1994, dated 1997).

Series [1] is described as follows: Degraded rate of squarylium compound in photosensitive resin solution with 2,4,6-tris(trichloromethyl)-s-triazine (Example 7). Type of series: physicochemical. The settings on record: 40° C., 3 days, light-screened, ethyl cellosolve, relative to Compound (A). On the procedure: (§1) 0.5 g of pentaerythritol triacrylate, 0.5 g of butyl methacrylate/acrylic acid copolymer (weight-average molecular weight 3,100, copolymerization ratio 66/34), 60 mg of 2,4,6-tris(trichloromethyl)-s-triazine and 2 mg of a squarylium compound were dissolved in ethyl cellosolve to 25 ml to give a photosensitive resin solution. This solution was light-screened and allowed to stand at 40° C. for 3 days. The absorbance at the maximum absorption wavelength present in 600 to 700 nm was measured with a spectrophotometer before (A1) and after (A2) being allowed to stand. The degraded rate of the squarylium compound was obtained according to the following equation:
(§2) Degraded rate (%)=(A1-A2)/A1 ×100
The degraded rates of squarylium Compounds 1 to 9 are shown as a relative value based on the degraded rate of Compound (A) in Table 5.

Series [2] can be described thus: Degraded rate of squarylium compound in photosensitive resin solution with iron(II) hexafluorophosphate complex (Example 8). The note with it: 40° C., 32 days, light-screened, ethyl cellosolve, relative to Compound (A). Format: physicochemical. Also on record: key: degraded rate relative to that of Compound (A). On the procedure:
as §1, §2
0.5 g of pentaerythritol triacrylate, 60 mg of polymethyl methacrylate (manufactured by Aldrich; weight-average molecular weight 12,000), 90 mg of (.eta.^6 -benzene)(.eta.^5 cyclopentadienyl)iron(II) hexafluorophosphate and 2 mg of a squarylium compound were dissolved in ethyl cellosolve to 25 ml to give a photosensitive resin solution. Thereafter, the same procedures as those in Example 7 were repeated except that a time for being allowed to stand of 3 days was replaced with that of 32 days to give the degraded rate of the squarylium compound. The degraded rate of squarylium Compounds 1 to 9 are shown as a relative value based on the degraded rate of Compound (A) in Table 6.

Series [3] can be described thus: Sensitivity of photosensitive layer with 2,4,6-tris(trichloromethyl)-s-triazine (Example 9). The note with it: energy necessary for hardening, s-triazine radical generator. From the text: (§3) 100 parts of pentaerythritol triacrylate, 100 parts of polymethacrylate polymer [synthesized according to the methods described in Jikkenkagakukoza, Maruzen K. K., 4th edition, volume 28, page 121, 1992; Kobunshigosei no Jikkenho (Experimental method for polymer synthesis), Kagakudojin K. K., coauthored by Takayuki Otsu and Masaetsu Kinoshita, page 138, 1972; average molecular weight 150,000; methyl ester/isobutyl ester/cyclohexyl ester/free carboxylic acid=27/36/25/12], 7.9 parts of 2,4,6-tris(trichloromethyl)-s-triazine and 1 part of a squarylium compound were dissolved in 1900 parts of ethyl cellosolve to give a photosensitive resin solution. This photosensitive solution was spin-coated on an aluminium plate treated with grinding and anodic oxidation, at 1000 rpm so that the dry-state thickness became 2 μm. On this, a 10% aqueous polyvinyl alcohol (Kurarey Poval 706) solution was spin-coated at 1500 rpm so that the dry-state thickness became 1 μm to give a over-coat layer. A step tablet was piled closely on the resulting photosensitive layer, and the rays having the wavelength around 630, 650 or 680 nm were irradiated from 3kw ultra-high pressure mercury lamp through a glass filter. The rays having the wavelength around 630 nm (155 μJ/cm^2 ·s) were obtained by passing the rays from the above mercury lamp through a colored glass filter R-61, an interference filter KL-63 (both were manufactured by Toshiba Glass Co., Ltd.) and a heat rays absorbing filter HA-30 (manufactured by HOYA Corporation), the rays having the wavelength around 650 nm (177 μJ/cm^2 ·s) were obtained by passing the rays from the above mercury lamp through a colored glass filter R-63, an interference filter KL-65 (both were manufactured by Toshiba Glass Co., Ltd.) and HA-30 and the rays having the wavelength around 680 nm (88 μJ/cm^2 ·s) were obtained by passing the rays from the above mercury lamp through a glass filter R-66, an interference filter KL-68 (both were manufactured by Toshiba Glass Co., Ltd.) and HA-30. Then, the development was carried out with a PS plate developer DN3C (manufactured by Fujiphoto Film Co., Ltd.) diluted 1.5-folds with distilled water, an ink was attached thereon with a PS plate developing ink PI-2 (manufactured by Fujiphoto Film Co., Ltd.) and the sensitivity was scored by obtaining an energy amount necessary for hardening from hardening step number with an ink attached thereto.

The nature of series [4]: Sensitivity of photosensitive layer with iron(II) hexafluorophosphate complex and CARBOSET XL-44 (Example 10). The settings on record: 630 nm; iron(II) hexafluorophosphate complex, CARBOSET XL-44.
From the text: as §3
The sensitivity when the rays having the wavelength around 630 nm were irradiated was obtained by repeating the same procedures as those in Example 9 except that 8 parts of (.eta.^6 -benzene) (.eta.^5 -cyclopentadienyl)iron(II) hexafluorophosphate was used in place of 7.9 parts of 2,4,6-tris(trichloromethyl)-s-triazine and CARBOSET,XL-44 (manufactured by BF Goodrich) was used in place of polymethacrylate polymer (methyl ester/isobutyl ester/cyclohexyl ester/free carboxylic acid=27/36/25/12).

Series [5] in a line: Sensitivity of photosensitive layer with 3,3',4,4'-tetrakis(tert-butyldioxycarbonyl)benzophenone (Example 11). The settings on record: 630 nm.
From the text: as §3
The sensitivity when the rays having the wavelength around 630 nm were irradiated was obtained by repeating the same procedures as those of Example 9 except that 8 parts of 3,3',4,4'-tetrakis(tert-butyldioxycarbonyl)benzophenone was used in place of 7.9 parts of 2,4,6-tris(tichloromethyl)-s-triazine.

For series [6] the following is noted: disclosed in JP-A 63-138345, JP-A 63-142346, JP-A 2-48665; cited from earlier work.
For series [7] the following is noted: background statement; cited from earlier work.
The conditions of series [8]: in the dark, light screened; background statement; cited from earlier work.
Series [9] can be described thus: Optical absorption property in chloroform. The settings on record: solvent chloroform. Format: physicochemical.

As for `CN1C(=CC2=C([O-])C(=CC3=[N+](C)c4ccc5ccccc5c4C3(C)C)C2=O)C(C)(C)c2c1ccc1ccccc21` [A, reference compound], the “Relative value of degraded rate” value in series [1] and in series [2] was 1.0 each time. Besides, the Sensitivity in [3] (630 nm) amounted to 0.91 mJ/cm^2; in [3] (650 nm) it was 0.56 mJ/cm^2; in [3] (680 nm), 0.65 mJ/cm^2; in series [4] it was 11 mJ/cm^2; in series [5], 0.43 mJ/cm^2. In addition, the maximum absorption wavelength in series [6] was 673 nm. Further, the “solubility in an organic solvent or a monomer” value in [7] was “low solubility”. Also, in series [8], the “degradation in photosensitizer solution” value was “easily degraded in the dark”.

Turning to `CCN1C(=CC2=C([O-])C(=CC3=[N+](CC)c4ccc5ccccc5c4C3(C)C)C2=O)C(C)(C)c2c1ccc1ccccc21` [Compound 1], the results for the “Relative value of degraded rate” value in series [1] and in series [2] were 0.34 and 0.51, respectively. Also, the figures for the Sensitivity in series [3] (630 nm), in series [3] (650 nm) and in series [3] (680 nm) were 0.47 mJ/cm^2, 0.40 mJ/cm^2 and 0.37 mJ/cm^2, respectively.

Take `CCCN1C(=CC2=C([O-])C(=CC3=[N+](CCC)c4ccc5ccccc5c4C3(C)C)C2=O)C(C)(C)c2c1ccc1ccccc21` [Compound 2]: the logε in series [9] is on record as 5.5. Also, the λ max in series [9] is listed as 667 nm. Moreover, the “Relative value of degraded rate” value in [1] is 0.25; in series [2], 0.48. In addition, the values for the Sensitivity in [3] (630 nm), in [3] (650 nm) and in series [3] (680 nm) were 0.47 mJ/cm^2, 0.40 mJ/cm^2 and 0.37 mJ/cm^2, respectively.

`CC(C)N1C(=CC2=C([O-])C(=CC3=[N+](C(C)C)c4ccc5ccccc5c4C3(C)C)C2=O)C(C)(C)c2c1ccc1ccccc21` [Compound 3]: the logε in series [9] was found to be 5.5. In series [9], this compound came in with a λ max of 666 nm. Besides, the entries for the “Relative value of degraded rate” value in series [1] and in series [2] were 0.24 and 0.44, respectively. For the same compound, the Sensitivity stood at 0.39 mJ/cm^2 in [3] (630 nm), 0.40 mJ/cm^2 in series [3] (650 nm), 0.26 mJ/cm^2 in series [3] (680 nm) and 0.083 mJ/cm^2 in [5].

Take `CCCCN1C(=CC2=C([O-])C(=CC3=[N+](CCCC)c4ccc5ccccc5c4C3(C)C)C2=O)C(C)(C)c2c1ccc1ccccc21` [Compound 4]: the “Relative value of degraded rate” value in series [1] was 0.29; in series [2], 0.60. In addition, the Sensitivity in series [3] (630 nm) is 0.39 mJ/cm^2; in [3] (650 nm) it was 0.40 mJ/cm^2; in series [3] (680 nm), 0.37 mJ/cm^2.

The compound `CC(C)CN1C(=CC2=C([O-])C(=CC3=[N+](CC(C)C)c4ccc5ccccc5c4C3(C)C)C2=O)C(C)(C)c2c1ccc1ccccc21` [Compound 5] returned a logε in series [9] of 5.5. This compound yielded a λ max in series [9] of 669 nm. Besides, the “Relative value of degraded rate” value was 0.15 in [1] and 0.42 in series [2]. Moreover, the Sensitivity in series [3] (630 nm) is 0.47 mJ/cm^2; in series [3] (650 nm) it was 0.56 mJ/cm^2; in [3] (680 nm), 0.28 mJ/cm^2; in [4] it was 11 mJ/cm^2; in series [5] it was 0.20 mJ/cm^2.

In turn, `CCCCCN1C(=CC2=C([O-])C(=CC3=[N+](CCCCC)c4ccc5ccccc5c4C3(C)C)C2=O)C(C)(C)c2c1ccc1ccccc21` [Compound 6] had a logε in [9] of 5.5. For the same compound, the λ max in [9] is recorded as 667 nm. The “Relative value of degraded rate” value in series [1] is on record as 0.28; in [2], 0.46. Besides, the Sensitivity in [3] (630 nm) came out at 0.56 mJ/cm^2; in series [3] (650 nm) it was 0.40 mJ/cm^2; in series [3] (680 nm), 0.37 mJ/cm^2; in [4], 5.8 mJ/cm^2; in series [5], 0.099 mJ/cm^2.

Turning to `CCCCN1C(=CC2=C([O-])C(=CC3=[N+](CCCC)c4ccc5ccccc5c4C3(C)C)C2=O)C(C)(C)c2c1ccc1ccccc21` [Compound 7], the results for the “Relative value of degraded rate” value in [1] and in [2] were 0.31 and 0.56, respectively. Also, the Sensitivity in series [3] (630 nm) is 0.47 mJ/cm^2; in [3] (650 nm) it was 0.40 mJ/cm^2; in series [3] (680 nm), 0.37 mJ/cm^2; in [4], 5.8 mJ/cm^2; in series [5] it was 0.20 mJ/cm^2.

As for `CC(C)CCN1C(=CC2=C([O-])C(=CC3=[N+](CCC(C)C)c4ccc5ccccc5c4C3(C)C)C2=O)C(C)(C)c2c1ccc1ccccc21` [Compound 8], in series [9], the logε is listed as 5.5 and the λ max stood at 667 nm. In addition, the “Relative value of degraded rate” value in series [1] is 0.32. Further, the “Relative value of degraded rate” value in series [2] was 0.43.

Turning to `CCCCCCN1C(=CC2=C([O-])C(=CC3=[N+](CCCCCC)c4ccc5ccccc5c4C3(C)C)C2=O)C(C)(C)c2c1ccc1ccccc21` [Compound 9], the logε in [9] amounted to 5.5. Further, the λ max in series [9] turned out to be 668 nm. Moreover, the entries for the “Relative value of degraded rate” value in series [1] and in [2] were 0.26 and 0.52, respectively. Further, the Sensitivity is recorded as 8.7 mJ/cm^2 in [4] and 0.17 mJ/cm^2 in [5].
